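In this assay, cells in 96-well plates receive the compound at five concentrations for 48 hours. Endpoints are linearly interpolated between the surrounding concentrations. GI50 marks 50% less growth.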 The source made the active and inactive calls. Cut-off read from the data, not from the text of the source: active = GI50 up to about 1.1 µM and inactive = higher. Bounds are passed on as bounds.

Test systems include DMS-114; DMS-273; KM-20L2; M19-MEL; SNB-78; XF498; DLD-1; HOP-18; RXF 631.
What all share (experiment): DTP human tumour cell line panel, 48 h

By GI50 is commonly meant the concentration giving 50% growth inhibition. As to `COC(=O)c1c(C(=O)OC)c2cc(C(=O)c3ccccc3)ccn2c1Cl`, the GI50 with DMS-114 was 23.5 µM (inactive); with DMS-273 it was 27.6 µM (inactive); in the test with KM-20L2 it was 55 µM (inactive); with M19-MEL, 32.5 µM (inactive); in the test on SNB-78, 50.9 µM (inactive); in the test on XF498, 24.3 µM (inactive).

For `Cc1nc2c(o1)/C(=N\c1ccccc1)c1ccccc1C2=O`, the GI50 is 12.9 µM (inactive) in the test with DLD-1; 3.3 µM (inactive) with DMS-114; 10.2 µM (inactive) with DMS-273; 5.42 µM (inactive) with HOP-18; 17.4 µM (inactive) with KM-20L2; 1.86 µM (inactive) with M19-MEL. For the same compound, the GI50 with SNB-78 was 6.81 µM (inactive); with XF498 it was 4.02 µM (inactive).

In the case of `O=C1C=C[C@@]23CC1C(O)C[C@H]2C=Cc1ccccc13` (stereo not given in full), the GI50 is 45.6 µM (inactive) with DLD-1; > 100 µM (inactive) with DMS-114; > 100 µM (inactive) in the test on KM-20L2; > 100 µM (inactive) in the test on M19-MEL; > 100 µM (inactive) with XF498.

With `O=[N+]([O-])c1cccc(C2=NOC(C3CCCCC3)C2)c1` (stereo not given), the GI50 in the test on DLD-1, in the test with DMS-114, in the test with DMS-273, in the test with HOP-18, with M19-MEL and with RXF 631 was > 100 µM (inactive) in each case. For the same compound, the GI50 in the test on SNB-78 is > 100 µM (inactive).

For the compound `COc1cc([C@H]2c3cc4c(cc3[C@H](NCc3ccc(F)cc3)C3COC(=O)[C@H]32)OCO4)cc(OC)c1O` (stereo not given in full), the GI50 in the test on DLD-1 was 7.03 µM (inactive); in the test with DMS-114, 3.37 µM (inactive); with DMS-273 it was 1.3 µM (inactive); in the test with HOP-18 it was 26.3 µM (inactive); in the test on KM-20L2, 3.56 µM (inactive); with M19-MEL, 7.59 µM (inactive). Further, the GI50 in the test on RXF 631 is 2.32 µM (inactive); in the test with SNB-78, 24.7 µM (inactive); in the test with XF498, 2.37 µM (inactive).

On to `O=C1c2ccccc2C(=O)C1(Cl)C1(S(=O)(=O)O)c2ccccc2-c2ccccc21`, for which the GI50 in the test with DLD-1, in the test with DMS-114, in the test with DMS-273, in the test with HOP-18, with KM-20L2 and in the test with M19-MEL was > 100 µM (inactive) each time. The GI50 in the test with SNB-78 and in the test with XF498 was > 100 µM (inactive) each time.

`COc1ccc2nc3cc(Cl)ccc3c(NCCCN(CCCl)CCCl)c2c1`: the GI50 in the test on DLD-1 is 0.233 µM (active); in the test on DMS-114, < 0.01 µM (active); in the test with DMS-273, 0.0161 µM (active); in the test on HOP-18 it was 2.64 µM (inactive); in the test with KM-20L2 it was 0.0339 µM (active); in the test on M19-MEL, 0.0443 µM (active). Moreover, the values for the GI50 with RXF 631, in the test on SNB-78 and with XF498 were 0.0118 µM (active), 0.0845 µM (active) and < 0.01 µM (active), respectively.

As for `CC(=O)c1ccc(NC(=O)C(=O)C(C(=O)c2ccc(Cl)c(Cl)c2)C2OC(=O)c3ccccc32)cc1` (stereo not given), the GI50 was 23.8 µM (inactive) in the test with DLD-1; 13.4 µM (inactive) in the test with DMS-114; 22.1 µM (inactive) in the test with DMS-273; 12.3 µM (inactive) in the test with HOP-18; 34.4 µM (inactive) with KM-20L2; 12.9 µM (inactive) in the test on SNB-78. Moreover, the GI50 in the test on XF498 was 22.5 µM (inactive).

Regarding `O=C(c1ccccc1)N1CCN2CCN=C(c3ccccc3)C21c1ccccc1` (stereo not given), the GI50 with DLD-1 was 91 µM (inactive); with DMS-114, 30.5 µM (inactive); in the test on DMS-273 it was > 100 µM (inactive); in the test with HOP-18, > 100 µM (inactive); in the test on KM-20L2 it was 70.6 µM (inactive); in the test on M19-MEL, 81.7 µM (inactive). In addition, the GI50 in the test on SNB-78 was > 100 µM (inactive).

`COc1c(C)cc(O)cc1C=O`: the GI50 in the test with DLD-1, in the test with DMS-114, with DMS-273, with M19-MEL, in the test on RXF 631 and with SNB-78 was > 100 µM (inactive) throughout.

Take `COc1ccc(-c2cnoc2-c2ccc(OC)c(OC)c2)cc1OC`: the GI50 with DLD-1 was 2.12 µM (inactive); in the test with DMS-114, 0.441 µM (active); in the test on DMS-273, 0.314 µM (active); in the test on HOP-18, 6.14 µM (inactive); in the test on KM-20L2 it was 4.66 µM (inactive); with M19-MEL, 0.891 µM (active). In addition, the GI50 in the test on SNB-78 was 7.62 µM (inactive); in the test with XF498, 1.75 µM (inactive).

Take `O=C(/C=C(\O)C(=O)O)/C=C(\O)c1ccc(Cl)cc1`: the GI50 in the test with DLD-1, with DMS-114, in the test on DMS-273, with HOP-18, in the test with KM-20L2 and with M19-MEL was > 100 µM (inactive) in each case. The GI50 in the test on SNB-78 and in the test on XF498 was > 100 µM (inactive) each time.

On to `O=P(CN1CCOCC1)(c1ccccc1)c1ccccc1`, for which the GI50 with DMS-114, in the test on DMS-273, in the test with M19-MEL, in the test with RXF 631, in the test with SNB-78 and with XF498 was > 100 µM (inactive) throughout.

With `CN(C)c1ccc(/C=C2\CCc3ccccc3C2=O)cc1Br`, the GI50 was 55.5 µM (inactive) in the test on DLD-1; 34.7 µM (inactive) in the test with DMS-273; > 100 µM (inactive) with HOP-18; 21.6 µM (inactive) with KM-20L2; 49.4 µM (inactive) in the test on M19-MEL; 39.4 µM (inactive) in the test with SNB-78. For the same compound, in the test with XF498, the GI50 is 94.6 µM (inactive).

`CCN(CC)C(=O)CNC(=O)OC(C)(C)C`: the GI50 with DLD-1, in the test with DMS-114, in the test with DMS-273, with KM-20L2, with M19-MEL and in the test on SNB-78 was > 100 µM (inactive) each time.

Turning to `Cc1c2n(c(=O)[nH]c1=O)C1OC(CO)C(O2)C1N=[N+]=[N-]` (stereo not given), the GI50 in the test with DLD-1, with DMS-114, in the test with DMS-273, in the test with KM-20L2, in the test on M19-MEL and in the test with SNB-78 was > 100 µM (inactive) each time.

Turning to `Cc1cnc2c(C)ccc([N+](=O)[O-])c2c1NCCCN(C)C`, the GI50 in the test with DMS-114 was > 100 µM (inactive); in the test on DMS-273, > 100 µM (inactive); in the test with KM-20L2 it was > 100 µM (inactive); in the test with M19-MEL it was > 100 µM (inactive); in the test with SNB-78, 43.7 µM (inactive).

As to `CC(=O)NC1=C(NCCN(C)C)C(=O)c2ccccc2C1=O`, the GI50 with DLD-1 was 14.3 µM (inactive); in the test on DMS-273, 11.7 µM (inactive); in the test on KM-20L2 it was 16.4 µM (inactive); in the test with M19-MEL it was 7.6 µM (inactive); with SNB-78, 18.9 µM (inactive); in the test on XF498 it was 13.7 µM (inactive).

Take `O=C1c2c(O)cccc2C(C(=O)CCCCCC(=O)C2c3cccc(O)c3C(=O)c3c(O)cccc32)c2cccc(O)c21`: the GI50 with DLD-1 was 1.12 µM (inactive); with DMS-114, 0.512 µM (active); in the test on DMS-273, 4.98 µM (inactive); with HOP-18, 1.16 µM (inactive); with KM-20L2, 5.51 µM (inactive); in the test with M19-MEL it was 0.857 µM (active). The GI50 is 1.26 µM (inactive) in the test with RXF 631, 0.681 µM (active) with SNB-78 and 0.46 µM (active) in the test with XF498.

On to `COC(=O)C(=O)C(C(=O)C=C(C)C)C(=O)C(=O)Nc1cc(C(F)(F)F)ccc1Cl` (stereo not given), for which the GI50 is > 100 µM (inactive) in the test on DLD-1; > 100 µM (inactive) with DMS-114; 28.7 µM (inactive) in the test with DMS-273; > 100 µM (inactive) in the test on HOP-18; > 100 µM (inactive) in the test with KM-20L2; > 100 µM (inactive) in the test on RXF 631. The GI50 in the test on SNB-78 and with XF498 was > 100 µM (inactive) each time.

For `CCCCCCCCOCC(COC(=O)CCCCCCC)OC(=O)CCCCCCC` (stereo not given), the GI50 in the test with DLD-1, in the test on DMS-114, in the test on DMS-273, in the test with HOP-18, in the test with KM-20L2 and in the test on M19-MEL was > 100 µM (inactive) throughout. Further, in the test with RXF 631, the GI50 is > 100 µM (inactive).

Take `O=[N+]([O-])c1ccc(Sc2c3ccccc3nc3ccccc23)cc1`: the GI50 in the test on DLD-1, with HOP-18, with KM-20L2, with M19-MEL, in the test on RXF 631 and with SNB-78 was > 100 µM (inactive) in each case. The GI50 with XF498 is > 100 µM (inactive).

Turning to `CC(=O)c1cccc(NC(=O)C(=O)Nn2c(N)nnc2N)c1`, the GI50 in the test on DLD-1, in the test on DMS-114, in the test with DMS-273, in the test with HOP-18, in the test on KM-20L2 and with M19-MEL was > 100 µM (inactive) each time. Moreover, the GI50 with SNB-78 and with XF498 was > 100 µM (inactive) each time.

With `Cc1cc(N(CCC#N)CCC#N)ccc1/N=N/c1ccc(Br)cc1`, the GI50 in the test on DLD-1 was > 42.7 µM (inactive); in the test with DMS-114 it was 20.2 µM (inactive); in the test on DMS-273, 17.8 µM (inactive); in the test with HOP-18, > 35 µM (inactive); in the test on KM-20L2, 3.61 µM (inactive); in the test with M19-MEL it was > 53.3 µM (inactive). For the same compound, the figures for the GI50 in the test on RXF 631, in the test on SNB-78 and with XF498 were 11.1 µM (inactive), 17.7 µM (inactive) and 2.22 µM (inactive), respectively.

As to `O=C1/C(=C/c2ccccc2)CN(C(=O)C(F)(F)F)C/C1=C\c1ccccc1`, the GI50 is 2.07 µM (inactive) with DLD-1; 1.64 µM (inactive) in the test on DMS-114; 1.44 µM (inactive) in the test on DMS-273; 6.82 µM (inactive) in the test on HOP-18; 2.11 µM (inactive) in the test with KM-20L2; 1.61 µM (inactive) with M19-MEL. Also, the GI50 in the test on SNB-78 was 2.2 µM (inactive).

As for `C=CC1C(OC2OC(CO)C(O)C(O)C2O)OC=C(C(=O)OC)C1CC=O` (stereo not given), the GI50 in the test on DLD-1, in the test on HOP-18, in the test on KM-20L2, in the test with M19-MEL, with RXF 631 and with SNB-78 was > 100 µM (inactive) throughout.

Values taken from ChEMBL document CHEMBL1201862, “PubChem BioAssay data set” (2004).
